System: HeLa cells
Test: In vitro efficacy of mFLuc mRNA-encapsulated lipid nanoparticles, luminescence
Format: cell-based
Settings: 20 ng mFLuc-encapsulated LNP, 24 hours
Description: To determine the efficacy of mRNA-encapsulated lipid nanoparticles in vitro, screening was performed using lipid nanoparticles synthesized with various amine head groups.
The test was conducted by treating 20 ng of mFLuc (SEQ ID NO: 1)-encapsulated lipid nanoparticles into HeLa cells using each lipid nanoparticle synthesized with various amine headgroups (Compounds 1, 2, 4, and 5). The luminescence intensity was measured at 24 hours.

Row | Structure (SMILES) | Relative luminescence mean value | expression effect (luminescence intensity), in words
1 | CCCCCC/C=C\COC(=O)CCCCCCCCN(CCCCCCCCC(=O)OC/C=C\CCCCCC)CCCN1CCN(CCCN(CCCCCCCCC(=O)OC/C=C\CCCCCC)CCCCCCCCC(=O)OC/C=C\CCCCCC)CC1 [Compound 4] | 39970.75 | –
2 | CCCCCC/C=C\COC(=O)CCCCCCCCN(CCCCCCCCC(=O)OC/C=C\CCCCCC)CCN1CCN(CCCCCCCCC(=O)OC/C=C\CCCCCC)CC1 [Compound 5] | 1022327.75 | highest expression effect
